This note sets out measurements from ChEMBL document CHEMBL4342498, “Design and Discovery of an Orally Efficacious Spiroindolinone-Based Tankyrase Inhibitor for the Treatment of Colon Cancer” (J Med Chem, 2020).

Active and inactive are the calls of the source. The calls are words filed in the database; no cut-off is given here.

Data set [1] is described as follows: Cmax in ICR mouse at 50 mg/kg, po. Details: dose 50 mg/kg, route oral. Particulars: in vivo. It is filed as ADME, organism-based.
Data set [2] relates to COLO 320DM. As to the kind of experiment: Antitumor activity against human COLO320DM cells xenografted in Prkdc-NOD-SCID CB17 mouse assessed as tumor growth inhibition. The data set is classed as functional.
Data set [3] can be described thus: Toxicity in human COLO320DM cells xenografted Prkdc-NOD-SCID CB17 mouse assessed as epithelial degeneration at 50 mg/kg, ip administered twice daily for 5 days followed by 2 days interval for 2 cycles. Particulars: in vivo.
In another data set the target is T1, Cytochrome P450 2C8 (Homo sapiens, UniProt P10632).
T1 sequence (P10632 whole entry): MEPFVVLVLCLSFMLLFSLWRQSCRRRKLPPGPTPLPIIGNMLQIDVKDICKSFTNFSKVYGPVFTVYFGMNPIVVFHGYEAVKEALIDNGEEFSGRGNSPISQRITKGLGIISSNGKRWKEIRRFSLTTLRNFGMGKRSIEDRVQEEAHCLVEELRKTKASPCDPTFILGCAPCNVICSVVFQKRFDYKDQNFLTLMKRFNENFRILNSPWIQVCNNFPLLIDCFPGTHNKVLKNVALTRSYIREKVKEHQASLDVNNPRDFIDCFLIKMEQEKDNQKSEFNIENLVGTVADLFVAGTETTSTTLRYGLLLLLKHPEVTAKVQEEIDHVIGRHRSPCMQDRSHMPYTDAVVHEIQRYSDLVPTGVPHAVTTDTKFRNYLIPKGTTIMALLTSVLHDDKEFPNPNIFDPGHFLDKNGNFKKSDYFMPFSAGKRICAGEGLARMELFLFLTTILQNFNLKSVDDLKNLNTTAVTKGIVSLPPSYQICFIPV
Put plainly: Inhibition of CYP2C8 in human liver microsomes using amodiaquine as substrate preincubated for 5 mins followed by NADPH addition and measured for 10 to 30 mins by LC-MS/MS analysis. The data set is classed as ADME.

Data set [4] concerns Mus musculus. Put plainly: In vivo inhibition of TNSK/TNSK2-medited WNT/beta-catenin signaling in human COLO320DM cells xenografted Prkdc-NOD-SCID CB17 mouse assessed as reduction in total beta catenin expression in tumor nuclear extract at 10 to 20 mg/kg, ip administered twice daily for 5 days followed by 2 days interval for 2 cycles measured 4 hrs post-last dose by Western blot analysis. The data set is classed as functional, organism-based.

Data set [5] relates to COLO 320DM. Put plainly: Antitumor activity against human COLO320DM cells xenografted in Prkdc-NOD-SCID CB17 mouse assessed as tumor growth inhibition at 10 mg/kg, po administered twice daily for 5 days followed by 2 days interval for 2 cycles relative to control. The data set is classed as functional. Conditions: read-out: TGI.
Data set [6] in a line: Toxicity in human COLO320DM cells xenografted Prkdc-NOD-SCID CB17 mouse assessed as change in body weight at 10 to 20 mg/kg, ip administered twice daily for 5 days followed by 2 days interval for 2 cycles measured during compound dosing. Conditions: in vivo. The data set is classed as organism-based.
The target of another data set is Cytochrome P450 2C9 (Homo sapiens, UniProt P11712). Put plainly: Inhibition of CYP2C9 in human liver microsomes using diclofenac as substrate preincubated for 5 mins followed by NADPH addition and measured for 10 to 30 mins by LC-MS/MS analysis. The data set is classed as ADME.
Cytochrome P450 2C9, sequence (P11712 whole entry): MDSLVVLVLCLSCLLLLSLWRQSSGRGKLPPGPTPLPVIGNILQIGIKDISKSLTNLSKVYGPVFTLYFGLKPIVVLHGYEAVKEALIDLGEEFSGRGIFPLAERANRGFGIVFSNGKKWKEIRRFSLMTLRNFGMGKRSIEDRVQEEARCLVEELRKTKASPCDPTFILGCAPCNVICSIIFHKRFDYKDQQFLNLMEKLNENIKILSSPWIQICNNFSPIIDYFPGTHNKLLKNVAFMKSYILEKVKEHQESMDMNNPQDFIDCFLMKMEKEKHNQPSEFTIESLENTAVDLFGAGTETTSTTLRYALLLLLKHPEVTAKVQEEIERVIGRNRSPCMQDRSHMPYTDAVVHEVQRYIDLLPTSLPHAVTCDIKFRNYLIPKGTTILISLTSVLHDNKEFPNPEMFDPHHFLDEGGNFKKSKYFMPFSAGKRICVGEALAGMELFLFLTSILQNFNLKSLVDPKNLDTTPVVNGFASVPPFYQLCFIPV
Another data set deals with Cytochrome P450 2C19 (Homo sapiens, UniProt P33261). Put plainly: Inhibition of CYP2C19 in human liver microsomes using (S)-mephenytoin as substrate preincubated for 5 mins followed by NADPH addition and measured for 10 to 30 mins by LC-MS/MS analysis. The data set is classed as ADME.
Cytochrome P450 2C19, sequence (P33261 whole entry): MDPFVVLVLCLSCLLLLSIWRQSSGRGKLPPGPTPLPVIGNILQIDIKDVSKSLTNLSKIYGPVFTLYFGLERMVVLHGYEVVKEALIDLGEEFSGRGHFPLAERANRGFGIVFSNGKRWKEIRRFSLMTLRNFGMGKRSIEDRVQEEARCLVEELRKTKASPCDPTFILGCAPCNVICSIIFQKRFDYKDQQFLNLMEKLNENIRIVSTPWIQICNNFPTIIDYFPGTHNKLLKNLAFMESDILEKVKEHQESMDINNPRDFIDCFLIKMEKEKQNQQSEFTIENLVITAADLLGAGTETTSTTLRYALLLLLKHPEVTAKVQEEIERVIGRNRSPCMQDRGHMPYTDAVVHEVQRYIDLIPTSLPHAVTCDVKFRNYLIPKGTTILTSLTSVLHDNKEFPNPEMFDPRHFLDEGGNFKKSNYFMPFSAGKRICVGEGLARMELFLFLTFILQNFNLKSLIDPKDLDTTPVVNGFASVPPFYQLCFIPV
The test system of data set [7] is Mus musculus. As to the kind of experiment: In vivo inhibition of TNSK/TNSK2-medited WNT/beta-catenin signaling in human COLO320DM cells xenografted Prkdc-NOD-SCID CB17 mouse assessed as reduction in total beta catenin expression in tumor nuclear extract at 10 to 20 mg/kg, po administered twice daily for 5 days followed by 2 days interval for 2 cycles measured 4 hrs post-last dose by Western blot analysis. The data set is classed as functional, organism-based.

The nature of data set [8]: AUC (infinity) in ICR mouse at 20 mg/kg, po. It is filed as ADME, organism-based. Details: dose 20 mg/kg, time infinity, route oral. Conditions: in vivo.
Data set [9] in a line: Tmax in ICR mouse at 20 mg/kg, po. The data set is classed as ADME, organism-based. Conditions: in vivo.
Data set [10] deals with Tankyrase 1/2 (Homo sapiens) (UniProt Q9H2K2+O95271). As to the kind of experiment: Inhibition of TNKS/TNKS2-mediated WNT/beta-catenin signaling pathway in human COLO320DM cells assessed as reduction in active beta-catenin expression by measuring beta-catenin level at 0.1 uM measured after 16 hrs by Western blot analysis relative to GADPH. The data set is classed as cell-based.
Tankyrase 1/2 (Homo sapiens), sequence (O95271 whole entry, looked up): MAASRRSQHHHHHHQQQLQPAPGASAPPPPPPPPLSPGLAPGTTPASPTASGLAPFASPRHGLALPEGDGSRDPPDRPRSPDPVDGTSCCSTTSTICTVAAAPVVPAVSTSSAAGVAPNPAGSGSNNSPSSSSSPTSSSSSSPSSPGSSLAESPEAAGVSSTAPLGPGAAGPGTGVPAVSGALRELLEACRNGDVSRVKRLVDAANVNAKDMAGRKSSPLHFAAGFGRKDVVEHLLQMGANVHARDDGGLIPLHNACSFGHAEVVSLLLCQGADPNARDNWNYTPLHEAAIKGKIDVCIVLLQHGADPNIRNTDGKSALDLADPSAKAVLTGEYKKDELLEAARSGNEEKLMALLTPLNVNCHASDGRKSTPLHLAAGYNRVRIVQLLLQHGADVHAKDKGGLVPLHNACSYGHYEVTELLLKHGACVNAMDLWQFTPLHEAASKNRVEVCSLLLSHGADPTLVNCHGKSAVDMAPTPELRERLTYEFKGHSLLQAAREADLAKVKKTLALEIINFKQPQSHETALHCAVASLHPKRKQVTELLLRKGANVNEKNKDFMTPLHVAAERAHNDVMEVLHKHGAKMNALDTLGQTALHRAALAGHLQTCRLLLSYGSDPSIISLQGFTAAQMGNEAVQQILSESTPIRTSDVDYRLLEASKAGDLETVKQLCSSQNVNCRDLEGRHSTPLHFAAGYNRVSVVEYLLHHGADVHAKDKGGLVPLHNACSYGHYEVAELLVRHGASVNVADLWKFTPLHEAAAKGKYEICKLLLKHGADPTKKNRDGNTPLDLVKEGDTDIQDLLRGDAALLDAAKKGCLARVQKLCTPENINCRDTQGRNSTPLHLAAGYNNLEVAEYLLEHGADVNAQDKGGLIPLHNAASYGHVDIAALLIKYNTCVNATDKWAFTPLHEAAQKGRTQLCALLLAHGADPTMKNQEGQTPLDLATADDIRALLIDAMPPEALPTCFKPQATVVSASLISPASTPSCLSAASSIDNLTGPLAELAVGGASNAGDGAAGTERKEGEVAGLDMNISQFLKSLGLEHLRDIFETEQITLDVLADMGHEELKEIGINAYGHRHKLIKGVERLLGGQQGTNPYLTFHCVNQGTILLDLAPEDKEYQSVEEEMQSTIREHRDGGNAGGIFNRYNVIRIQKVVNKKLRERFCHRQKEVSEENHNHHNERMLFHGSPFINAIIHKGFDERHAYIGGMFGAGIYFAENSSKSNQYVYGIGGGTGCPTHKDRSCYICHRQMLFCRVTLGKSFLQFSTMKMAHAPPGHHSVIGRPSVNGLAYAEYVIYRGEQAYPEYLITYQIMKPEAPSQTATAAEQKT
Tankyrase 1/2 (Homo sapiens), sequence (Q9H2K2 whole entry, looked up): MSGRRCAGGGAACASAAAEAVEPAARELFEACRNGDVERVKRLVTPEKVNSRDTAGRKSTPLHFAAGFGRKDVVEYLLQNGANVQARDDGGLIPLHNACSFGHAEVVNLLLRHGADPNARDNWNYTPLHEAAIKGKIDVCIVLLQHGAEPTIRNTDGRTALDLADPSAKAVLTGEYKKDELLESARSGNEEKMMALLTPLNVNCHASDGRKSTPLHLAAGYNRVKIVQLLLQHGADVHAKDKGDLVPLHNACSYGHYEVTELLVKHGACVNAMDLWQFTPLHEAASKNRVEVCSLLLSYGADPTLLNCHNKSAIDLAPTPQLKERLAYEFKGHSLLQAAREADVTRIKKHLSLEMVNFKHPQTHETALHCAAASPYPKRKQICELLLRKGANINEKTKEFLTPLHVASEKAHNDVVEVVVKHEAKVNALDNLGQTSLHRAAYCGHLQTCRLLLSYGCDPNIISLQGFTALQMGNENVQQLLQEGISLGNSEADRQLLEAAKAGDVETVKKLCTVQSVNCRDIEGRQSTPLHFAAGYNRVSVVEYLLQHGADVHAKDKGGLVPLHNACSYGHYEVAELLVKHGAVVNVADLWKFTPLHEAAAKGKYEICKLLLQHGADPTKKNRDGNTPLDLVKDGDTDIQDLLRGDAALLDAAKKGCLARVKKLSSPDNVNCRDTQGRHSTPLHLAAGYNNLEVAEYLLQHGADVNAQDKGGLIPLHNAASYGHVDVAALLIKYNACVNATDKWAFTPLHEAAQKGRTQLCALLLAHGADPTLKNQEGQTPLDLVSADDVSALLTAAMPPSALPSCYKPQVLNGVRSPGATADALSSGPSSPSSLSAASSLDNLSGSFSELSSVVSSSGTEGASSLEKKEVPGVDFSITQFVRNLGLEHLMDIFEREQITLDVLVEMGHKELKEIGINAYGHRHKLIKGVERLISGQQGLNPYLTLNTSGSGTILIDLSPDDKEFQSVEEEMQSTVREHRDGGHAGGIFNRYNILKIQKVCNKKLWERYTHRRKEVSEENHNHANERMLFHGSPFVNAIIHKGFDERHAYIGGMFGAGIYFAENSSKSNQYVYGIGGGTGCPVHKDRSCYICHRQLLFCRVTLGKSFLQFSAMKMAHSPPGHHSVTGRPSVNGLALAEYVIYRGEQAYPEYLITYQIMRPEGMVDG

The target of a further data set is T2, Cytochrome P450 1A2 (Homo sapiens, UniProt P05177).
T2 sequence (P05177 whole entry): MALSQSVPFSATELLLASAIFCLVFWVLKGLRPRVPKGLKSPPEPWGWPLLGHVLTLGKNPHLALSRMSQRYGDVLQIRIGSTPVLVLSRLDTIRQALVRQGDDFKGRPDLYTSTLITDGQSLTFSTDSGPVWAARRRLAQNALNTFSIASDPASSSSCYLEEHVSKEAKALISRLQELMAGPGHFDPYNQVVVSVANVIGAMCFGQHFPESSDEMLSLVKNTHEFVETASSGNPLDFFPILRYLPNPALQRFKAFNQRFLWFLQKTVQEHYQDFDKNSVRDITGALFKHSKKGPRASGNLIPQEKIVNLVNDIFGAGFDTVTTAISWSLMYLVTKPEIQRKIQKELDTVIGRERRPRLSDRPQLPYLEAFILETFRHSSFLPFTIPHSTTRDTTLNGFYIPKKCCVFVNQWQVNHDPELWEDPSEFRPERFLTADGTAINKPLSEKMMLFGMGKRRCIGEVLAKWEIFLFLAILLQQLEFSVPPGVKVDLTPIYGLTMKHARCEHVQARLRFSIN
As to the kind of experiment: Inhibition of CYP1A2 in human liver microsomes using phenacetin as substrate preincubated for 5 mins followed by NADPH addition and measured for 10 to 30 mins by LC-MS/MS analysis. It is filed as ADME.

Data set [11] is described as follows: Toxicity in human COLO320DM cells xenografted Prkdc-NOD-SCID CB17 mouse assessed as behavioral changes at 10 to 20 mg/kg, ip administered twice daily for 5 days followed by 2 days interval for 2 cycles measured during compound dosing. The data set is classed as organism-based. Particulars: in vivo.
Data set [12] can be described thus: Toxicity in human COLO320DM cells xenografted Prkdc-NOD-SCID CB17 mouse assessed as reduction in crypt proliferation at 50 mg/kg, ip administered twice daily for 5 days followed by 2 days interval for 2 cycles. Conditions: in vivo.
Data set [13] can be described thus: Dose normalized AUC (infinity) in Sprague-Dawley rat at 1 mg/kg, iv. It is filed as ADME, organism-based. Conditions: in vivo.
Data set [14] can be described thus: Dose normalized initial plasma concentration in Sprague-Dawley rat at 1 mg/kg, iv. The data set is classed as ADME, organism-based. Particulars: in vivo.

Regarding `CN1CCN(c2cc(F)c3c(c2)N(C)C(=O)C32CCN(c3nc4c(c(=O)[nH]3)CCCN4C)CC2)CC1`, the Cmax in data set [1] was 21.2 µM. Further, the TGI result in the data set with COLO 320DM [2] was “inactive”.
`C[C@@H]1CN(c2cc(F)c3c(c2)N(C)C(=O)C32CCN(c3nc4c(c(=O)[nH]3)CCCN4C)CC2)C[C@H](C)O1`: the Activity result in data set [3] is reported as “Toxic”; in [6] it was “Non-Toxic”; in [11] it was “Non-Toxic”; in data set [12] it was “Toxic”. Further, the IC50 at Cytochrome P450 2C8, against Cytochrome P450 2C9, against Cytochrome P450 2C19 and against Cytochrome P450 1A2 was > 10 µM each time. Moreover, in the data set on Mus musculus [4], the inhibition entry was “inactive”. For the same compound, the inhibition in vivo at 10 mg/kg with COLO 320DM [5] was 52.3%. The compound also showed a Cmax in data set [1] of 121 µM. Also, the inhibition entry in the data set with Mus musculus [7] is “Active”. In data set [8], this compound yielded an AUC(0-inf) of 326 µM·h. The Tmax in data set [9] turned out to be 1 h. Moreover, the Ratio IC50 in the data set listed under Homo sapiens amounted to 34. The fold change (FC) in [10] was 0.39. The same compound yielded an AUC/dose in data set [13] of 10.49 µmol·h/L. The compound further gave a C0/dose in data set [14] of 15.26 µmol/L.
